In brackets after ≈: the same amount, converted by molar mass. Residues, ends and D or L forms follow the SMILES beside them. No end group written: not given here. *: point of attachment. Orn(α-tetramethylguanidino) = CN(C)C(=N[C@@H](CCCN)C(=O)*)N(C)C Bounds are passed on as bounds.

This assay has as its system E. coli, BL21 cells. It counts as cell-based. The following applies: for MIC, TSB / MIC, LB / MIC, RPMI/Serum: E. coli BL21, broth microdilution, conducted in triplicate; for MIC, TSB: 33% TSB medium; for MIC, LB: LB medium; for MIC, RPMI/Serum: RPMI/Serum medium (RPMI-1640:MHB:FBS = 100:5:20); for MIC values relative to wt Api: E. coli BL21, peptides from depletion selection. How it is done: The E. coli strain CA244 (lacZ125(Am), e14-, trpA49(Am), relA1, spoT1) was obtained from Escherichia coli Genetic Stock Center. The E. coli BL21(DE3) electrocompetent cells were from Sigma. The following media and components were implemented for bacteria growth: lysogeny broth (LB), minimal M9 medium, Tryptic Soy Broth (TSB), Roswell Park Memorial Institute medium 1640 (RPMI-1640), Mueller Hinton Broth (MHB), Fetal Bovine Serum (FBS). For various experiments E. coli cells were grown either in LB, in 33% TSB ([21]), in M9 medium supplemented with 1% Glycerol, 1 mM MgSO4, 0.1 mM CaCl2 and 10 μg/ml thiamine, or in RPMI/Serum (RPMI-1640:MHB:FBS = 100:5:20) ([23]).
The minimal inhibitory concentration (MIC) test was performed using the broth microdilution method, adapted from the previously described procedure ([28]). The MIC tests were conducted in triplicate either in LB, 33% TSB or RPMI/Serum media.
In order to quantitatively assess the antimicrobial activity of the synthesized peptides identified by both, the negative and positive selection strategies, we determined their minimal inhibitory concentrations (MICs) for the E. coli BL21 cells in three different media: LB, as a standard laboratory medium, 33% TSB, as a medium in which PrAMPs show increased antibacterial properties ([21]), and in the more therapeutically relevant RPMI/serum media ([23]) (Table 1). […] It appears, therefore, that the positive selection strategy is more prone to identifying biologically active peptides in comparison with the negative selection approaches. Furthermore, it became apparent that some multiple substitutions can even improve the antibacterial properties of the Api-like peptides.

Take `CC[C@H](C)[C@H](NC(=O)[C@H](Cc1ccc(O)cc1)NC(=O)[C@@H](NC(=O)[C@@H]1CCCN1C(=O)[C@H](CCCNC(=N)N)NC(=O)[C@H](CC(N)=O)NC(=O)[C@H](CC(N)=O)NC(=O)[C@H](CCCN)N=C(N(C)C)N(C)C)C(C)C)C(=O)NCC(=O)N[C@@H](CCC(=O)O)C(=O)N1CCC[C@H]1C(=O)N[C@@H](CCCNC(=N)N)C(=O)N1CCC[C@H]1C(=O)N1CCC[C@H]1C(=O)N[C@@H](CC(N)=O)C(=O)N1CCC[C@H]1C(=O)N[C@@H](CCCNC(=N)N)C(=O)N[C@@H](CC(C)C)C(=O)O` [Peptide G9E10N15] ({Orn(α-tetramethylguanidino)}-NNRPVYIGEPRPPNPRL-OH; C-terminus assumed): the “MIC, TSB” value is more than 64 µM; the “MIC, LB” value is more than 64 µM; the “MIC, RPMI/Serum” value is more than 64 µM.

For the molecule GNRRPMYIPRPRPPHPRE [Peptide R3M6R10E18], the “MIC, TSB” value stood at 8 µM; the “MIC, LB” value is more than 64 µM; the “MIC, RPMI/Serum” value stood at 16 µM.

Take `CC[C@H](C)[C@H](NC(=O)[C@H](Cc1ccc(O)cc1)NC(=O)[C@H](CCCNC(=N)N)NC(=O)[C@@H]1CCCN1C(=O)[C@H](CCCNC(=N)N)NC(=O)[C@H](CC(N)=O)NC(=O)[C@H](CC(N)=O)NC(=O)[C@H](CCCN)N=C(N(C)C)N(C)C)C(=O)N1CCC[C@H]1C(=O)N[C@@H](C)C(=O)N1CCC[C@H]1C(=O)N[C@@H](CCCNC(=N)N)C(=O)N1CCC[C@H]1C(=O)N1CCC[C@H]1C(=O)N[C@@H](Cc1c[nH]cn1)C(=O)N1CCC[C@H]1C(=O)N[C@@H](CCCNC(=N)N)C(=O)N[C@@H](CC(C)C)C(=O)O` [Peptide R6A10] ({Orn(α-tetramethylguanidino)}-NNRPRYIPAPRPPHPRL-OH; C-terminus assumed): the “MIC values relative to wt Api” value was “comparable to those of wt Api”; the “MIC, TSB” value came out at 0.5 µM (≈ 1.13 µg/mL); the “MIC, LB” value was 4 µM (≈ 9.05 µg/mL); the “MIC, RPMI/Serum” value was 0.0625 µM (≈ 0.141 µg/mL).

On to `CC(C)C[C@H](NC(=O)[C@H](CCCNC(=N)N)NC(=O)[C@@H]1CCCN1C(=O)[C@H](Cc1c[nH]cn1)NC(=O)[C@@H]1CCCN1C(=O)[C@H](CO)NC(=O)[C@H](CCCNC(=N)N)NC(=O)[C@@H]1CCCN1C(=O)[C@@H](NC(=O)[C@H](CC(N)=O)NC(=O)[C@H](Cc1ccc(O)cc1)NC(=O)[C@H](Cc1ccc(O)cc1)NC(=O)[C@@H](NC(=O)[C@@H]1CCCN1C(=O)[C@H](CCCNC(=N)N)NC(=O)[C@H](CCCCN)NC(=O)[C@H](CC(N)=O)NC(=O)[C@H](CCCN)N=C(N(C)C)N(C)C)C(C)C)[C@@H](C)O)C(=O)O` [Peptide K3Y8N9T10S13] ({Orn(α-tetramethylguanidino)}-NKRPVYYNTPRSPHPRL-OH; C-terminus assumed), for which the “MIC, TSB” value was more than 64 µM; the “MIC, LB” value was more than 64 µM; the “MIC, RPMI/Serum” value is more than 64 µM.

Consider `CC[C@H](C)[C@H](NC(=O)[C@H](Cc1ccc(O)cc1)NC(=O)[C@H](CCCCN)NC(=O)[C@@H]1CCCN1C(=O)[C@H](CCCNC(=N)N)NC(=O)[C@H](CC(N)=O)NC(=O)[C@H](CC(N)=O)NC(=O)[C@H](CCCN)N=C(N(C)C)N(C)C)C(=O)N1CCC[C@H]1C(=O)N[C@@H](CCSC)C(=O)N1CCC[C@H]1C(=O)N[C@@H](CCCNC(=N)N)C(=O)N1CCC[C@H]1C(=O)N1CCC[C@H]1C(=O)N[C@@H](Cc1c[nH]cn1)C(=O)N1CCC[C@H]1C(=O)N[C@@H](CCCNC(=N)N)C(=O)N[C@@H](CC(C)C)C(=O)O` [Peptide K6M10] ({Orn(α-tetramethylguanidino)}-NNRPKYIPMPRPPHPRL-OH; C-terminus assumed), for which the “MIC values relative to wt Api” value is reported as “comparable to those of wt Api”; the “MIC, TSB” value amounted to 0.5 µM (≈ 1.15 µg/mL); the “MIC, LB” value was 8 µM (≈ 18.4 µg/mL); the “MIC, RPMI/Serum” value is 1 µM (≈ 2.3 µg/mL).

As for GRNRPVYIPKPRPPHPRL [Peptide R2K10], the “MIC, TSB” value came to 0.25 µM; the “MIC, LB” value came out at 2 µM; the “MIC, RPMI/Serum” value came out at 0.5 µM.

Take “GNNRPVYIPQPRPPHPRL [Api Ib, Apidaecin 1b, reference compound]”: the “MIC, TSB” value came to 0.5 µM; the “MIC, LB” value was 16 µM; the “MIC, RPMI/Serum” value is 4 µM.

`CC[C@H](C)[C@H](NC(=O)[C@H](Cc1ccc(O)cc1)NC(=O)[C@@H](NC(=O)[C@H](CCCNC(=N)N)NC(=O)[C@H](CCCNC(=N)N)NC(=O)[C@H](CC(N)=O)NC(=O)[C@H](CC(N)=O)NC(=O)[C@H](CCCN)N=C(N(C)C)N(C)C)C(C)C)C(=O)N1CCC[C@H]1C(=O)N[C@@H](CC(N)=O)C(=O)N1CCC[C@H]1C(=O)N[C@@H](CCCNC(=N)N)C(=O)N1CCC[C@H]1C(=O)N1CCC[C@H]1C(=O)N[C@@H](Cc1c[nH]cn1)C(=O)N1CCC[C@H]1C(=O)N[C@@H](CCCNC(=N)N)C(=O)N[C@@H](CC(C)C)C(=O)O` [Peptide R5N10] ({Orn(α-tetramethylguanidino)}-NNRRVYIPNPRPPHPRL-OH; C-terminus assumed): the “MIC values relative to wt Api” value is given as “comparable to those of wt Api”; the “MIC, TSB” value came out at 8 µM (≈ 18.5 µg/mL); the “MIC, LB” value was 32 µM (≈ 73.9 µg/mL); the “MIC, RPMI/Serum” value is 1 µM (≈ 2.31 µg/mL).

Regarding GNNRPVYAYQPRPPHPRT [Peptide A8Y9T18], the “MIC, TSB” value amounted to 4 µM; the “MIC, LB” value was found to be 32 µM; the “MIC, RPMI/Serum” value was determined as 8 µM.

As for GNNRPGYDRQPRPPHPRL [Peptide G6D8R9], the “MIC, TSB” value turned out to be 8 µM; the “MIC, LB” value worked out at 16 µM; the “MIC, RPMI/Serum” value is 4 µM.

Consider TNARPVNAPQPRPPHPRL [Peptide T1A3N7A8], for which the “MIC, TSB” value came to 8 µM; the “MIC, LB” value was determined as 64 µM; the “MIC, RPMI/Serum” value stood at 16 µM.

Consider `CC(C)C[C@H](NC(=O)[C@H](CCCNC(=N)N)NC(=O)[C@@H]1CCCN1C(=O)[C@H](Cc1c[nH]c2ccccc12)NC(=O)[C@@H]1CCCN1C(=O)[C@@H]1CCCN1C(=O)[C@H](CCCNC(=N)N)NC(=O)[C@@H]1CCCN1C(=O)[C@H](CCC(N)=O)NC(=O)[C@@H]1CCCN1C(=O)[C@H](CC(=O)O)NC(=O)[C@H](CC(N)=O)NC(=O)[C@@H](NC(=O)[C@H](CCCNC(=N)N)NC(=O)[C@H](CCCNC(=N)N)NC(=O)[C@H](CC(N)=O)NC(=O)[C@H](CC(N)=O)NC(=O)[C@H](CCCN)N=C(N(C)C)N(C)C)[C@@H](C)O)C(=O)O` [Peptide R5T6N7D8W15] ({Orn(α-tetramethylguanidino)}-NNRRTNDPQPRPPWPRL-OH; C-terminus assumed), for which the “MIC, TSB” value was more than 64 µM; the “MIC, LB” value was more than 64 µM; the “MIC, RPMI/Serum” value was more than 64 µM.

Consider GNNRPGYQPKPRPPHPRL [Peptide G6Q8K10], for which the “MIC, TSB” value stood at 0.5 µM; the “MIC, LB” value was found to be 32 µM; the “MIC, RPMI/Serum” value is 16 µM.

Consider SVMRPVYKPQPRPPHPRL [Peptide S1V2M3K8], for which the “MIC, TSB” value was found to be 0.5 µM; the “MIC, LB” value was found to be 16 µM; the “MIC, RPMI/Serum” value was determined as 4 µM.

As for GNNRPVECPQPRPRVPRL [Peptide E7C8R14V15], the “MIC, TSB” value was more than 64 µM; the “MIC, LB” value is more than 64 µM; the “MIC, RPMI/Serum” value is more than 64 µM.

Turning to GNNRPVYIPKPRPPYPRK [Peptide K10Y15K18], the “MIC, TSB” value came out at 2 µM; the “MIC, LB” value is 8 µM; the “MIC, RPMI/Serum” value worked out at 2 µM.

Regarding `CC[C@H](C)[C@H](NC(=O)CNC(=O)[C@@H](NC(=O)[C@H](CCC(=O)O)NC(=O)[C@H](CCC(N)=O)NC(=O)[C@H](CC(N)=O)NC(=O)[C@H](CC(N)=O)NC(=O)[C@H](CCCN)N=C(N(C)C)N(C)C)C(C)C)C(=O)N[C@@H](CCSC)C(=O)N[C@@H](CCC(N)=O)C(=O)N1CCC[C@H]1C(=O)N[C@@H](CCCNC(=N)N)C(=O)N1CCC[C@H]1C(=O)N1CCC[C@H]1C(=O)N[C@@H](Cc1c[nH]cn1)C(=O)N1CCC[C@H]1C(=O)N[C@@H](CCCNC(=N)N)C(=O)N[C@@H](CC(C)C)C(=O)O` [Peptide Q4E5G7M9] ({Orn(α-tetramethylguanidino)}-NNQEVGIMQPRPPHPRL-OH; C-terminus assumed), the “MIC, TSB” value is more than 64 µM; the “MIC, LB” value was more than 64 µM; the “MIC, RPMI/Serum” value is more than 64 µM.

Consider GNRRPVYIPVPRPPYPRL [Peptide R3V10Y15], for which the “MIC, TSB” value came out at 2 µM; the “MIC, LB” value amounted to 8 µM; the “MIC, RPMI/Serum” value stood at 2 µM.

On to GYNRPAYIPRPRPPHPRR [Peptide Y2A6R10R18], for which the “MIC, TSB” value stood at 1 µM; the “MIC, LB” value turned out to be 4 µM; the “MIC, RPMI/Serum” value is 0.5 µM.
